# Reference: patent publication US20220089733A1, “NOVEL APPROACH FOR TREATMENT OF CANCER USING IMMUNOMODULATION” (BioXcel Therapeutics, Inc., priority 2018, published 2022)
# Key:
# [1] = target: CYP3A4 (Homo sapiens, UniProt P08684)
# [2] = target: CYP2C19 (Homo sapiens, UniProt P33261)
# [3] = target: T1, CYP2C8 (Homo sapiens, UniProt P10632)
# T1 sequence (P10632 1-490): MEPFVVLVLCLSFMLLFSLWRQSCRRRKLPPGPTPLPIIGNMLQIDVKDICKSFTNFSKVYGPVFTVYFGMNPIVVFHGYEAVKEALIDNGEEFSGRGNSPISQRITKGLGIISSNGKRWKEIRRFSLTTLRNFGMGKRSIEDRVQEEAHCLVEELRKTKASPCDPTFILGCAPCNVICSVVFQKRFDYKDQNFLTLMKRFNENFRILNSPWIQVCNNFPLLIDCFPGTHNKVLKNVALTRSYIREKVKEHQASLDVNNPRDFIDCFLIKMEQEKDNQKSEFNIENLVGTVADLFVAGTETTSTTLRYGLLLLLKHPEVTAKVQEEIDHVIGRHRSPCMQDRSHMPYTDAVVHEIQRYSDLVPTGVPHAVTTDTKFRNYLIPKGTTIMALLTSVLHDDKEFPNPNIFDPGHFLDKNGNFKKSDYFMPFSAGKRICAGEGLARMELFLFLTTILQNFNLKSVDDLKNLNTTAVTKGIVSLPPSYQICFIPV
# [4] = target: CYP2D6 (Homo sapiens, UniProt P10635)
# CYP2D6, sequence (P10635 whole entry): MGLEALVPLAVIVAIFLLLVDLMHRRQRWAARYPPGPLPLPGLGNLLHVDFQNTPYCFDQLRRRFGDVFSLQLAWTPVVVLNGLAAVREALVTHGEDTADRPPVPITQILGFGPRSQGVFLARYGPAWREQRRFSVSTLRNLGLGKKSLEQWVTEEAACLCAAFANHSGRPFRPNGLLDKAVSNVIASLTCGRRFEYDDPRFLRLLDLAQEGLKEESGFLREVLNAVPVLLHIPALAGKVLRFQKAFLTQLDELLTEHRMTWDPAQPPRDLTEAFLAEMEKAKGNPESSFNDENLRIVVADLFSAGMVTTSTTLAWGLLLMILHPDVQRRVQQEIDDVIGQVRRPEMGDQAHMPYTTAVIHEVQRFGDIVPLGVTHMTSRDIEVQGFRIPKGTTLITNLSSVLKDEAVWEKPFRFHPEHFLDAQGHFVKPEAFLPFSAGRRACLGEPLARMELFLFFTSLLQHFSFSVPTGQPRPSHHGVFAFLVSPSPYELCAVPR
# [5] = in vivo; cited from earlier work
# [6] = target: CYP1A2 (Homo sapiens, UniProt P05177); settings: human liver CYP isoenzymes; preclinical studies
# CYP1A2 (Homo sapiens, UniProt P05177), sequence (P05177 whole entry): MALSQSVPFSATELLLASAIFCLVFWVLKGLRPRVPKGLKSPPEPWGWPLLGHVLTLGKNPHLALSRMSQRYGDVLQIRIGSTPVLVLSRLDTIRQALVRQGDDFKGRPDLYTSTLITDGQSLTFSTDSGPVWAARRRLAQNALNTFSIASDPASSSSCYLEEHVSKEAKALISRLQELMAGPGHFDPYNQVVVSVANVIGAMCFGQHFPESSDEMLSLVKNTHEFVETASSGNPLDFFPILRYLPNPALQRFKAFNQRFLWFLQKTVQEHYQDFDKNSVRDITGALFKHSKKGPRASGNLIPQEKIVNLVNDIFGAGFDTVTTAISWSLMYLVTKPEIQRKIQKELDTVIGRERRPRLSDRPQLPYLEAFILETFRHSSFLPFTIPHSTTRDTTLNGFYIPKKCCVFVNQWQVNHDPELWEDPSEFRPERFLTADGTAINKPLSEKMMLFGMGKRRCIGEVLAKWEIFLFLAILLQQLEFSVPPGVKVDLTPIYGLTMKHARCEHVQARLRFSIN
# [7] = target: CYP2C9 (Homo sapiens, UniProt P11712)
# CYP2C9, sequence (P11712 whole entry): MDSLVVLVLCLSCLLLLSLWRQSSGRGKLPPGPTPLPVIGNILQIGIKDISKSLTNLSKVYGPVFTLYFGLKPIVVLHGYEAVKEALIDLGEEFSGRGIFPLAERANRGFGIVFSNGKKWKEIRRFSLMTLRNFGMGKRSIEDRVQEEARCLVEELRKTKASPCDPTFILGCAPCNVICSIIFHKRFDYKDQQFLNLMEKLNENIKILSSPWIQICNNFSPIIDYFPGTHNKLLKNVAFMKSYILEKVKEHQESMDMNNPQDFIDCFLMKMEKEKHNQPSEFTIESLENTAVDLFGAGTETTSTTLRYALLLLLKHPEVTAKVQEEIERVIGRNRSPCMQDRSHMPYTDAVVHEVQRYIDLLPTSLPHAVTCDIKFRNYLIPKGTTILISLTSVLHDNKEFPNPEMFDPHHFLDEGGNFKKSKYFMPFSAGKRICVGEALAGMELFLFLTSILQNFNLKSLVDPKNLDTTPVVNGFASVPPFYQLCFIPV
# [8] = test system: CYP1A2
# [9] = test system: CYP3A4
# [10] = test system: melanoma; settings: melanoma patients; cited from earlier work
# CYP2C19, sequence (P33261 whole entry): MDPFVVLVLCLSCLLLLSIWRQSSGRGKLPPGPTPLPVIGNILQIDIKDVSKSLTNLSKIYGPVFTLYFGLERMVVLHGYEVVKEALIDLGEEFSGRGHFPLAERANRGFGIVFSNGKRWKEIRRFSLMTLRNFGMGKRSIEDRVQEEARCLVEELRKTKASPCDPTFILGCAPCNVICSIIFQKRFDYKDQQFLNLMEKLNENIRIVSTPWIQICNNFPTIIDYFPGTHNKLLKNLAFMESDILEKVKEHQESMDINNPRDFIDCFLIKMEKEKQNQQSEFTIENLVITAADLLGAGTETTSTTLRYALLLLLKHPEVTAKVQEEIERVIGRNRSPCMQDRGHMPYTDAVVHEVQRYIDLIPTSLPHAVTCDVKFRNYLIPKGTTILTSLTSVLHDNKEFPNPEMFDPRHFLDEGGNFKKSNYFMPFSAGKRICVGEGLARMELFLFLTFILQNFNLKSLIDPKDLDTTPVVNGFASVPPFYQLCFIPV
# CYP3A4 (Homo sapiens, UniProt P08684), sequence (P08684 whole entry): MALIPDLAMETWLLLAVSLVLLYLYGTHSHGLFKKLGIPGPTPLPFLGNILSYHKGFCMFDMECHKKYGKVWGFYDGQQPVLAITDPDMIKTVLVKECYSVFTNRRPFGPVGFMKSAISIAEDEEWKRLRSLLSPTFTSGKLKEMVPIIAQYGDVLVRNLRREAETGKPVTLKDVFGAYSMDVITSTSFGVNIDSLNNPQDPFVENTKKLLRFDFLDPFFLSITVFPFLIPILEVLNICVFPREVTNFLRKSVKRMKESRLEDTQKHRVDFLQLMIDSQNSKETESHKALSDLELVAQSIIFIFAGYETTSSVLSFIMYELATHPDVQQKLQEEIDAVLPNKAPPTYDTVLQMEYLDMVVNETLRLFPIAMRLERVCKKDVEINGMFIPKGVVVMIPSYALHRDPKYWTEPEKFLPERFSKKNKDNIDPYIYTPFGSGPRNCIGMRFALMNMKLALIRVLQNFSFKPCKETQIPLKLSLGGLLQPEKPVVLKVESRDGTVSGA
compound,measurement,setting,value
Talabostat mesylate,Potential to inhibit CYP3A4,[1],low potential
same,Potential to inhibit CYP2C19,[2],low potential
same,Potential to inhibit CYP2C8,[3],low potential
same,Potential to inhibit CYP2D6,[4],low potential
same,Most common / most frequently observed adverse events,[5],"edema/peripheral swelling, hypotension, dizziness, and hypovolemia"
same,Potential to inhibit CYP1A2,[6],low potential
same,Potential to inhibit CYP2C9,[7],low potential
same,Induction of CYP1A2,[8],did not induce
same,Induction of CYP3A4,[9],did not induce
"Nivolumab: PD-1 antagonist antibody, checkpoint inhibitor",Response rate,[10],32%
"Ipilimumab: CTLA-4 antagonist antibody, checkpoint inhibitor",Response rate,[10],11%
"CC(C)[C@H](N)C(=O)N1CCC[C@H]1B(O)O [Talabostat, [(2R)-1-[(2S)-2-amino-3-methylbutanoyl]pyrrolidin-2-yl]boronic acid]",Most common / most frequently observed adverse events,[5],"edema/peripheral swelling, hypotension, hypovolemia, and dizziness"
